Results reported in patent US20120149902A1, “PYRROLO[2,3-D]PYRIMIDINE DERIVATIVE” (UBE INDUSTRIES, LTD., priority 2009, published 2012).

Tests used:
[1] = target: T1, purified human recombinant HER2 kinase (Lys676-Val1255, GST fusion) (Homo sapiens, UniProt P04626); assay: HER2 kinase enzyme inhibitory activity (HTRF); type: biochemical; conditions: 200 μM ATP, FLT3 analogous peptide substrate, 60 minutes at room temperature
T1 construct: human recombinant HER2 kinase (Lys676-Val1255, GST fusion); GST
T1 sequence (P04626 676-1255): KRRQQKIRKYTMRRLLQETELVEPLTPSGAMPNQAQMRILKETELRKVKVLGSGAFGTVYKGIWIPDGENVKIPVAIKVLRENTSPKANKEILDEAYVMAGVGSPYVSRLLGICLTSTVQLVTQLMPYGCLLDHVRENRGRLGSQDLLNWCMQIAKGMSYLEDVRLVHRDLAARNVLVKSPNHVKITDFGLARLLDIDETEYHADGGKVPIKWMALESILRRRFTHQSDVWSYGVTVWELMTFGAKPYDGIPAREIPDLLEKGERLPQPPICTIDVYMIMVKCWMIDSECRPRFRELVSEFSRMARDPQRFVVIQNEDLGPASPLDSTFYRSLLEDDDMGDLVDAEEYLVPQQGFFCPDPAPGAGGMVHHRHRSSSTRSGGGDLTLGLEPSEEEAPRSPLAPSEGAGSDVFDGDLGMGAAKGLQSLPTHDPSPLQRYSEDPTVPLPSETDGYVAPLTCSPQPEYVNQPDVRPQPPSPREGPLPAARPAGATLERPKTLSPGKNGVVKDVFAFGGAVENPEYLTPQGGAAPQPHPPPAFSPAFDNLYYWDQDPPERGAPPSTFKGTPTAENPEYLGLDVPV
Procedure: The HER2 kinase enzyme inhibitory activity of a compound of the present invention was evaluated by using a purified human recombinant HER2 kinase (Lys676-Val1255, GST fusion) and a synthetic peptide as a substrate, and detecting the phosphorylation level of the substrate by the HTRF method (homogeneous time resolved fluorescence method). Specifically, 25 ng/well of activated HER2, 200 μM of ATP, 200 ng/well of FLT3 analogous peptide (biotin label, peptide sequence is AGGSSDNEYFYVDF), and test compound (final concentration 0.01 nM to 30 μM) were mixed in kinase reaction buffer (60 mM HEPES, 5 mM MgCl2, 5 mM MnCl2, 3 mM Na3VO4, 1.25 mM DTT, pH 7.5) to prepare 50 μL/well of total reaction volume, and the mixture was reacted for 60 minutes at room temperature. Then, the phosphorylation reaction was stopped and HTRF reaction was carried out by adding 25 μL/well of PBS solution comprising the following components and reacting the mixture for 12 to 16 hours at 4° C. The following components were dissolved in PBS (pH 7.0) to prepare the PBS solution composition: 60 mM EDTA (final concentration 20 mM), 1.2 M KF (final concentration […]), 1 mg/mL BSA (final concentration 333 μg/mL), 6 μg/mL anti-PY20-Cryptate (Cisbio international, France, final concentration 2 μg/mL), and 15 μg/mL Streptavidin labeled with XL665 (Cisbio international, France, final concentration 5 μg/mL).

[2] = tested on: HER2 overexpressed gastric cancer cell line NCI-N87; assay: Cytotoxic activity (in vitro), CellTiter-Glo viable cell count; type: cell-based; conditions: Homo sapiens, NCI-N87, 72 h, NCI-N87, cultured for 72 hours
Procedure: The cytotoxic activity of a compound of the present invention was investigated using a HER2 overexpressed gastric cancer cell line NCI-N87. Specifically, an appropriate amount of cells was seeded into a 96-well plate for cell culture at 50 μL/well, and precultured overnight at 37° C. under 5% —CO2 condition. A solution of a test compound in DMSO with dilution series was diluted with medium, and added to the precultured cells at the volume of 50 μL/well. The mixture was prepared such that the final concentration of DMSO became 0.1%. After the mixture was cultured for 72 hours at 37° C. under 5% —CO2 condition, 100 μL/well of CellTiter-Glo solution (Promega, Madison, Wis.) was added, the luminescence was measured using a luminometer (Wallac ARVO™ SX) 10 minutes later, and the viable cell count was determined.

[3] = tested on: HER2 overexpressed gastric cancer cell line; assay: In vivo anti-tumor effect, subcutaneous tumor transplant in nude mouse; conditions: oral, daily except Saturday and Sunday, 2 to 4 weeks, read-out: Tumor growth inhibition ratio (%)
Procedure: The anti-tumor effect in vivo of a compound of the present invention was evaluated using a HER2 overexpressed gastric cancer cell line. Specifically, a tumor fragment with about 5 mm square was transplanted subcutaneously using a transplantation needle, or an appropriate number of tumor cells was suspended in saline (Otsuka Pharmaceutical Co., Ltd.) and transplanted under the skin of the right axillary region of a nude mouse using a glass syringe equipped with a two-stage needle for subcutaneous injection. After the confirmation of the engraftment of the transplanted tumors, the mice were classified into groups depending on the tumor volume. The test compounds: the Example Compounds 1-1, 1-2, 1-5, 1-8, 1-13, 1-14, 1-15, 1-19, 1-20, 1-22, 2-1, 2-3, and 3-2 were each dissolved or suspended in an appropriate medium and orally administered forcedly to a mouse. The period of administration was varied from 2 weeks to 4 weeks depending on tumor, and the administration was carried out daily with drug holidays of Saturday and Sunday. The major axis (mm) and the minor axis (mm) of a tumor were measured sequentially using an electronic digital vernier caliper, and evaluated by the tumor growth inhibition ratio (GI %) on the judgement day (in principle, the next day of the final administration) using the following calculating formula.
A: Average tumor volume on the judgement day of the group to which a compound was administered (*)
B: Average tumor volume on the judgement day of the untreated control group (*)
*: The tumor volume is calculated by ½×[major axis of tumor]×[minor axis of tumor]^2.

SMILES | IC50 [1] | GI50 [2] | inhibition in vivo at 100 mg/kg ([3]; dosage 100 mg/kg) | inhibition in vivo at 30 mg/kg ([3]; dosage 30 mg/kg)
COc1ccc(Nc2ncnc3[nH]cc(CN4CCC(N)CC4)c23)cc1 [Example 1-19, [5-(4-Aminopiperidin-1-ylmethyl)-7H-pyrrolo[2,3-d]pyrimidin-4-yl](4-methoxyphenyl)amine] | ≥ 100 nM | 50 to 500 nM | 44% | 
NC1CCN(Cc2c[nH]c3ncnc(Nc4cccc(Br)c4)c23)CC1 [Example 1-8, [5-(4-Aminopiperidin-1-ylmethyl)-7H-pyrrolo[2,3-d]pyrimidin-4-yl](3-bromophenyl)amine] | < 10 nM | < 20 nM |  | 59%
